# Ends that are not written are not given here.
# How the values were obtained:
# [1] = test system: HEY ovarian cell xenografts; assay: Growth of subcutaneous HEY ovarian carcinoma xenografts in athymic mice; format: in vivo; details: Compound (I) 10 mg/kg/day i.p. for 21 days, paclitaxel 20 mg/kg i.v. every 4 days for 3 doses, alone or both, FIG. 2
# Procedure: In vitro studies in ovarian cells: Human ovarian tumour cell lines (OVCA 433 and HEY) were maintained in culture media containing serum until sufficient numbers were available for experimentation. At this time the cells were transferred into media without serum. After 24 hours of serum starvation, cells were treated with either Compound (I) (1 μM) or paclitaxel (60 nM), or Compound (I)+paclitaxel. Following treatment for 24 hours, apoptosis was measured by a standard cell detection ELISA Plus kit (Boehringer Manheim). In vitro studies in prostate cells: Human prostate tumour cells (PPC-1) were maintained in culture medium containing serum until sufficient numbers were available for experimentation. After this time cells were transferred into media without serum. After 23 hours of serum starvation cells were treated with either endothelin 1 (10^−7M) or endothelin 1+Compound (I) at 10^−7M. An additional group of cells received vehicle control alone. One hour later cells were treated with paclitaxel or docetaxel at either 10^−6M, 10^−8M or 10^−10M for 24 hours. At the end of this 24 hour period, viable cell numbers were measured by a standard MTT assay (Mossman, J Inmunol Methods. (1983) 65, 55-63). In vivo studies: Athymic mice were given subcutaneous injections of 1.5×10^6 HEY cells into the flank. […]
# [2] = test system: Human ovarian tumour cell lines (OVCA 433 and HEY); assay: Apoptosis in serum-starved ovarian tumour cell lines, cell detection ELISA Plus kit; format: cell-based; details: HEY and OVCA 433 cells, 24 h serum starvation, 24 h treatment; Compound (I) 1 μM, paclitaxel 60 nM, alone or combined; FIG. 1
# Source text: To evaluate the effect of Compound (I) in combination with an anti-mitotic cytotoxic agent (paclitaxel) on the growth of various carcinoma cells, we utilised two established human ovarian cell lines (HEY and OVCA 433**) which express functional endothelin A (ETa) receptors and secrete high levels of endothelin-1 (ET-1). ET-1 is an anti-apoptotic factor in many cell types, having this effect via ETa receptors. ** OVCA 433 was established from ascites obtained from a patient with advanced serous ovarian adenocarcinoma (Tsa, S W et al., (1995) Exp. Cell Res. 218: 499-507) and HEY was derived from a xenograft of a peritoneal deposit of a cystoadeonocarcinoma of the ovary (Buick, R. N. et al., (1985) Cancer Research 45: 3668-3676). PPC-1 cells were originally derived from a human prostate tumour and were obtained from the laboratory of Dr. J. Nelson, University of Pittsburgh). In vitro studies in ovarian cells: Human ovarian tumour cell lines (OVCA 433 and HEY) were maintained in culture media containing serum until sufficient numbers were available for experimentation. […] Following treatment for 24 hours, apoptosis was measured by a standard cell detection ELISA Plus kit (Boehringer Manheim). […] At the end of this 24 hour period, viable cell numbers were measured by a standard MTT assay (Mossman, J Inmunol Methods. (1983) 65, 55-63). […]
# [3] = test system: Human prostate tumour cells (PPC-1); assay: Viable cell numbers of prostate tumour cells by MTT assay; format: cell-based; details: PPC-1 cells, FIG. 3; for numbers of viable prostate cells remaining in culture: cytotoxic alone at 10^-6, 10^-8 or 10^-10 M for 24 hours
# Source text: ** OVCA 433 was established from ascites obtained from a patient with advanced serous ovarian adenocarcinoma (Tsa, S W et al., (1995) Exp. Cell Res. 218: 499-507) and HEY was derived from a xenograft of a peritoneal deposit of a cystoadeonocarcinoma of the ovary (Buick, R. N. et al., (1985) Cancer Research 45: 3668-3676). PPC-1 cells were originally derived from a human prostate tumour and were obtained from the laboratory of Dr. J. Nelson, University of Pittsburgh).
# In vitro studies in ovarian cells: Human ovarian tumour cell lines (OVCA 433 and HEY) were maintained in culture media containing serum until sufficient numbers were available for experimentation. At this time the cells were transferred into media without serum. After 24 hours of serum starvation, cells were treated with either Compound (I) (1 μM) or paclitaxel (60 nM), or Compound (I)+paclitaxel. Following treatment for 24 hours, apoptosis was measured by a standard cell detection ELISA Plus kit (Boehringer Manheim). In vitro studies in prostate cells: Human prostate tumour cells (PPC-1) were maintained in culture medium containing serum until sufficient numbers were available for experimentation. After this time cells were transferred into media without serum. After 23 hours of serum starvation cells were treated with either endothelin 1 (10^−7M) or endothelin 1+Compound (I) at 10^−7M. An additional group of cells received vehicle control alone. One hour later cells were treated with paclitaxel or docetaxel at either 10^−6M, 10^−8M or 10^−10M for 24 hours. At the end of this 24 hour period, viable cell numbers were measured by a standard MTT assay (Mossman, J Inmunol Methods. (1983) 65, 55-63). In vivo studies: Athymic mice were given subcutaneous injections of 1.5×10^6 HEY cells into the flank. After 7 days, when established tumours had formed, mice were randomized to 4 treatment groups with 10 mice in each group. One group was treated with Compound (I) given by daily intraperitoneal injections (10 mg/kg/day) for 21 days. A second group received intravenous injections of paclitaxel (20 mg/kg) every 4 days for 3 doses. A third group received both paclitaxel and Compound (I) and a fourth group was given injections in the same way using vehicle alone. The experiments were replicated three times.
Compound,inhibition of HEY ovarian cell xenografts (tumour growth) [1],effect on apoptosis [2],"effect on the endothelin-1 reversal of cytotoxic-induced reduction in viable cell number ([3]; endothelin 1 10^-7 M + Compound (I) 10^-7 M, one hour before paclitaxel or docetaxel)",numbers of viable prostate cells remaining in culture [3],effect on the paclitaxel- or docetaxel-induced reduction in viable cell number ([3]; endothelin 1 10^-7 M given one hour before paclitaxel or docetaxel)
"COc1nc(C)cnc1NS(=O)(=O)c1cccnc1-c1ccc(-c2nnco2)cc1 [Compound (I), N-(3-methoxy-5-methylpyrazin-2-yl)-2-(4-[1,3,4-oxadiazol-2-yl]phenyl)pyridine-3-sulphonamide]",significant inhibition,no statistically significant effects,blocked,–,–
"CC(=O)O[C@@]12CO[C@@H]1C[C@H](O)[C@@]1(C)C(=O)[C@H](O)C3=C(C)[C@@H](OC(=O)[C@H](O)[C@@H](NC(=O)OC(C)(C)C)c4ccccc4)C[C@@](O)([C@@H](OC(=O)c4ccccc4)[C@H]21)C3(C)C [docetaxel, Docetaxel]",–,–,–,significantly reduced,–
"CC(=O)O[C@H]1C(=O)[C@@]2(C)[C@H]([C@H](OC(=O)c3ccccc3)[C@]3(O)C[C@H](OC(=O)[C@H](O)[C@@H](NC(=O)c4ccccc4)c4ccccc4)C(C)=C1C3(C)C)[C@]1(OC(C)=O)CO[C@@H]1C[C@@H]2O [paclitaxel, Paclitaxel]",degree of inhibition was similar,no statistically significant effects,–,significantly reduced,–
"endothelin-1 (CSCSSLMDKECVYFCHLDIIW; ends and bridges not checked; cysteine pairing not given here; UniProt P05305 53-73, looked up) [endogenous 21 amino acid peptide, anti-apoptotic factor acting via ETa receptors]",–,–,–,–,reversed

# From US20100035896A1, “Combination of N-(3-methoxy-5-methylpyrazin-2-yl)-2-(4-[1,3,4-oxadiazol-2-yl]phenyl)pyridine-3-sulphonamide and an anti-mitotic cytotoxic agent” (ASTRAZENECA AB, priority 2004, published 2010)
